Measured values: publication PMC6790676, “Increase in lysophosphatidate acyltransferase activity in oilseed rape (Brassica napus) increases seed triacylglycerol content despite its low intrinsic flux control coefficient” (The New Phytologist, 2019)

Test system: T1, LPAAT (lysophosphatidate acyltransferase, microsomal preparations)
T1 construct: gene LPAT2; native microsomes from 27 DAF embryos; several endogenous ER isoenzymes
Test: […]-PA formation, TLC; bi-substrate rate equation fit
Format: biochemical
Details: 50 mM Tris pH 7.5, 1 mg/ml BSA, 30°C, 10 min, embryo microsomes, line not told

Km (co-substrate LPA at high concentration, labelled compound (1-14C-oleoyl-CoA)) [µM]	Km (co-substrate 1-14C-oleoyl-CoA at high concentration) [µM]	Structure (SMILES)
103		CCCCCCCC/C=C\CCCCCCCC(=O)SCCNC(=O)CCNC(=O)[C@H](O)C(C)(C)COP(=O)(O)OP(=O)(O)OC[C@H]1O[C@@H](n2cnc3c(N)ncnc32)[C@H](O)[C@@H]1OP(=O)(O)O [oleoyl-CoA]
	15.2	CCCCCCCC/C=C\CCCCCCCC(=O)OC[C@@H](O)COP(=O)(O)O [LPA]
